The source of these data is US5998654A, “Retinoic acid receptor antagonist compounds and methods” (Ligand Pharmaceuticals Incorporated, priority 1997, dated 1999).

The Kd is a measure of binding affinity in units of concentration. The IC50 is the concentration that inhibits the measured activity by half.

Assay [1] addresses T1, RARγ (Homo sapiens, UniProt P13631).
T1 sequence (P13631 1-454): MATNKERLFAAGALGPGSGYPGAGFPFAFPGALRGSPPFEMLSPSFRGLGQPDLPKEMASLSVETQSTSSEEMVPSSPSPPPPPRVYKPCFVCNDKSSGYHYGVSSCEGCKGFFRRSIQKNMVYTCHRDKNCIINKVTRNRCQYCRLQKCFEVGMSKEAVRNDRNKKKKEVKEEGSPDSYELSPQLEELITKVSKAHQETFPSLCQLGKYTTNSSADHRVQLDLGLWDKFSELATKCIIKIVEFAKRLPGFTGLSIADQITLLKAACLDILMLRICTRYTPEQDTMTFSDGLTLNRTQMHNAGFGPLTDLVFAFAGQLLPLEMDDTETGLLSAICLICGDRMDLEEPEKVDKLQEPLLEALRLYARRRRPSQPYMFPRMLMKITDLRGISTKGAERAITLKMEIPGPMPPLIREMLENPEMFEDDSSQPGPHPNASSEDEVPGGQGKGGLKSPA
As to the kind of experiment: RAR binding, RARγ. The settings on record: Kd from IC50 by Cheng-Prussof equation. As to the method: Non-specific binding was defined as that binding remaining in the presence of 500 nM of the appropriate unlabelled compound. At the end of the incubation period, bound from free ligand were separated. The amount of bound tritiated retinoids was determined by liquid scintillation counting of an aliquot (700 μL) of the supernatant fluid or the hydroxylapatite pellet.
After correcting for non-specific binding, IC50 values were determined. […] The IC50 value was determined graphically from a log-logit plot of the data. The Kd values were determined by application of the Cheng-Prussof equation to the IC50 values, the labeled ligand concentration and the Kd of the labeled ligand.

For assay [2], the target named is T1, RARγ. Description: co-transfection assay, antagonist activity on RARγ. Type of assay: cell-based. Set-up: expressed in transfected cells; host or cells: CV-1 cells (African green monkey kidney). The conditions noted are these: CV-1 cells, in presence of known RAR agonist TTNPB; for IC50: read-out: IC50 antagonist potency, RARγ. From the text:
This assay is described in further detail in U.S. Pat. Nos. 4,981,784 and 5,071,773, the disclosures of which are incorporated herein by reference.
In the co-transfection assay, a cloned cDNA for an IR (e.g., human RARα:, RARβ, RXRγ) under the control of a constitutive promoter (e.g., the SV 40 promoter) is introduced by transfection (a procedure to induce cells to take up foreign genes) into a background cell substantially devoid of endogenous IRs. This introduced gene directs the recipient cells to make the IR protein of interest. A second gene is also introduced (co-transfected) into the same cells in conjunction with the IR gene. This second gene, comprising the cDNA for a reporter protein, such as firefly luciferase (LUC), is controlled by an appropriate hormone responsive promoter containing a hormone response element (HRE). This reporter plasmid functions as a reporter for the transcription-modulating activity of the target IR. Thus, the reporter acts as a surrogate for the products (mRNA then protein) normally expressed by a gene under control of the target receptor and its native hormone.
The co-transfection assay can detect small molecule agonists or antagonists of target IRs. Exposing the transfected cells to an agonist ligand compound increases reporter activity in the transfected cells. This activity can be conveniently measured, e.g., by increasing luciferase production, which reflects compound-dependent, IR-mediated increases in reporter transcription. To detect antagonists, the co-transfection assay is carried out in the presence of a constant concentration of an agonist to the target IR (e.g., all-trans retinoic acid for RARα) known to induce a defined reporter signal. Increasing concentrations of a suspected antagonist will decrease the reporter signal (e.g., luciferase production). The co-transfection assay is therefore useful to detect both agonists and antagonists of specific IRs. Furthermore, it determines not only whether a compound interacts with a particular IR, but whether this interaction mimics (agonizes) or blocks (antagonizes) the effects of the native regulatory molecules on target gene expression, as well as the specificity and strength of this interaction.
CV-1 cells (African green monkey kidney fibroblasts) were cultured in the presence of Dulbecco's Modified Eagle Medium (DMEM) supplemented with 10% charcoal resin-stripped fetal bovine serum then transferred to 96-well microtiter plates one day prior to transfection.
To determine RAR and/or RXR agonist activity of the compounds of the present invention, the CV-1 cells were transiently transfected by calcium phosphate coprecipitation according to the procedure of Berger et al., 41 J. Steroid Biochem. Mol. Biol., 733 (1992) with the following receptor expressing plasmids: pRShRARα: Giguere et al., 330 Nature, 624 (1987); pRShRARβ and pRShRARγ, Ishikawa et al., 4 Mol. Endocrin., 837 (1990); pRShRXRα, Mangelsdorf et al., 345 Nature, 224 (1990); and pRSmRXRβ and pRSmRXRγ, Mangelsdorf et al., 6 Genes & Devel., 329 (1992), the disclosures of which are herein incorporated by reference. Each of these receptor expressing plasmids was co-transfected at a concentration of 5 ng/well, along with a basal reporter plasmid at 100 ng/well, the internal control plasmid pRS-β-Gal at 50 ng/well and filler DNA, pGEM at 45 ng/well.
The basal reporter plasmid D-MTV-LUC (Hollenberg and Evans, 55 Cell, 899 (1988), the disclosure of which is herein incorporated by reference) containing two copies of the TRE-palindromic response element described in Umesono et al., 336 Nature, 262 (1988), the disclosure of which is herein incorporated by reference, was used in transfections for the RARs, and the reporter plasmid CRBPIIFKLUC, which contains an RXRE (retinoid X receptor response element, as described in Mangelsdorf et al., 66 Cell, 555 (1991), the disclosure of which is herein incorporated by reference), was used in transfections for the RXRs.

Take `CCCCOc1c(C(C)(C)C)cc(/C(C)=C/C=C/C(C)=C/C(=O)O)cc1C(C)(C)C` [Compound 7, 2E, 4E, 6E-[7-(3,5-Di-t-butyl-4-n-butoxyphenyl)-3-methyl]-octa-2,4,6-trienoic acid]: on RARγ [1], the Kd turned out to be 17 nM. At RARγ [2], the “efficacy of antagonist, % of maximal inhibition, RARγ (in parentheses after IC50)” value is listed as 91% and the IC50 is 2 nM.
On RARγ [1], `CCCOc1c(C(C)(C)C)cc(/C(C)=C/C=C/C(C)=C/C(=O)O)cc1C(C)(C)C` [Compound 8, 2E, 4E, 6E-[7-(3,5-Di-t-butyl-4-n-propoxyphenyl)-3-methyl]-octa-2,4,6-trienoic acid] yielded a Kd of 4 nM. Moreover, on RARγ [2], the “efficacy of antagonist, % of maximal inhibition, RARγ (in parentheses after IC50)” value came out at 85% and the IC50 turned out to be 3 nM.
Take `CCCCCOc1c(C(C)(C)C)cc(/C(C)=C/C=C/C(C)=C/C(=O)O)cc1C(C)(C)C` [Compound 9, 2E, 4E, 6E-[7-(3,5-Di-t-butyl-4-n-pentoxyphenyl)-3-methyl]-octa-2,4,6-trienoic acid]: on RARγ [1], binding was put at a Kd of 14 nM. Moreover, on RARγ [2], the “efficacy of antagonist, % of maximal inhibition, RARγ (in parentheses after IC50)” value amounted to 80% and the 50% inhibitory concentration (IC50) amounted to 5 nM.
As to `C=C(c1ccccc1)c1cc(/C(C)=C/C=C/C(C)=C/C(=O)O)cc(C(C)(C)C)c1` [Compound 17, (2E,4E,6E)-7-[3-t-butyl-5-(1-phenyl-vinyl)-phenyl]-3-methyl-octa-2,4,6-trienoic acid], at RARγ [1], the affinity, expressed as Kd, was 14 nM. On RARγ [2], the “efficacy of antagonist, % of maximal inhibition, RARγ (in parentheses after IC50)” value is listed as 85% and the IC50 turned out to be 2 nM.
